Results from article PMC12080252, “Daphnia magna as an Alternative Model for (Simultaneous) Bioaccumulation and Chronic Toxicity Assessment—Controlled Exposure Study Indicates High Hazard of Heterocyclic PAHs” (Environmental Science & Technology, 2025).
Where “and” joins values, the source holds several entries; their conditions need not be identical. Equal entries are not always repeated.

Experiments:
[1] = Chronic reproduction toxicity test (OECD 211) with passive dosing; assay type: in vivo, Daphnia magna; settings: Daphnia magna, in vivo, other: waterborne exposure by passive dosing from PDMS disks, 21-day test, read-out: % offspring mortality of total offspring
Method: (§1) Chronic toxicity tests with D. magna were performed according to the OECD guideline 211^2 using the passive dosing method. Two days before the tests, the exposure solution was predosed by shaking 10 PDMS disks loaded with the test substance in 1 L of medium for 48 h. Each test vessel (250 mL) was first flushed with the dosed solution to equilibrate the vessel walls, then filled with 100 mL of test solution, one PDMS disk, and one juvenile D. magna (<24 h old). The tests were conducted in loosely closed bottles to allow for adequate gas exchange and limit evaporation. The exposure medium was changed three times per week, and the animals were fed D. subspicatus daily (0.2 mg C/Daphnia/day). The number of offspring per adult and behavioral or physiological effects (e.g., size, movement, unhatched eggs) were recorded daily (except weekends). Dissolved oxygen, pH and temperature were also measured each week.
(§2) Tests were performed under static conditions (20 °C, 16:8 h light/dark cycle, 1 klux). Each compound was tested in 10 replicates for controls and limit tests (a single high concentration exposure to screen for significant toxic effects) and with 6 or 10 replicates for concentration–response tests. Reuse of silicone disks was included in some experiments (Table S3). Reproductive inhibition was assessed by counting offspring over 21 days. The number of offspring per mother in treatment groups was compared to controls, and the percent inhibition per replicate was used to generate concentration–response curves. A minimum of five concentrations per compound were tested to determine EC10, EC20, and EC50 values. For each test, three sets of polymers were rotated between loading, dosing, and exposure stages (Figure S2). Initial (before animal and food addition) and final (after 2–3 days of exposure, just before the medium change) water concentrations (CW) were monitored, with the latter collected after centrifugation to remove biomass (e.g., algae, carapaces, or feces).
(§3) All data are presented as average ± standard deviation. Student’s t test was used to analyze significance (p-value >0.05 considered insignificant). Concentration–response curve parameters (effective concentrations and confidence limits) and plots were generated using GraphPad Prism software (V6.01, GraphPad Software, La Jolla, CA, USA). The exposure concentrations were log10 transformed before fitting. Then a four parameters logistic model with variable slope was used to obtain EC10, EC20 and EC50 (see section S5 in SI file for details). Effective chemical activities (EA50) for chronic toxicity were calculated as follows: [drawing 1] 1 […]
(§4) S5. Concentration-response curve (CRC) fitting procedure
(§5) GraphPad Prism version 9.5.1 was used to fit CRC and obtain EC10, EC20, EC50 values and their confidence intervals. The exposure concentrations were log10 transformed before fitting. Then a four parameters logistic model with variable slope was used that describes the response as a function of following four parameters: minimum response (the Bottom), maximum response (the Top), the concentration required to cause a response half-way between the minimum and maximum (the EC50) and the slope of the curve […]
(§6) concentration. The Top was constrained to 100, the Bottom was constrained to 0, the HillSlope was not […]
(§7) !"# %& = !"# %&* − , × !"# 3 * 4
(§8) (, + ,((!"# %&'(<=)×-.!!/!"01)
(§9) Figure S7 Concentration-response curves of four NSO-PAHs based on reproductive inhibition during 21-day chronic toxicity tests with D. magna.
(§10) (1 picture or pasted object on this page, not shown here)

[2] = tested on: Daphnia magna; experiment: as above; assay type: in vivo; settings: for EC10: 21-day reproduction inhibition; for % inhibition, avr.: average of vessels; for #live offspring per mother, Total: one value per vessel; for wet weight of parent daphnids, change relative to control: end of 21-d exposure
Method: as §1, §2, §3, §4, §5, §6, §7, §8, §9, §10

[3] = cited from earlier work
[4] = DNF 0.2 µg/L (0.125 g/L methanol), 21 days
[5] = DNF 0.41 µg/L (0.5 g/L methanol), 21 days
[6] = DNF 1.24 µg/L (1 g/L methanol), 21 days
[7] = DNF […] (0.25 g/L methanol), 21 days
[8] = DNF avr. medium concentration 1.35 µg/L, conc. of methanol for dosing 1.5 g/L, 21 days, single vessels 1-6 (replicates)

c1ccc2c(c1)ccc1oc3ccc4ccccc4c3c12 [DNF, dinaphtho[2,1-b:1′,2′-d]furan]
mortality at 21 days, 0.18 µg/L ([1]; 0.18 µg/L (Fig. S8)): 2.6% | mortality at 21 days, 0.24 µg/L ([1]; 0.24 µg/L (Fig. S8)): 5% | mortality at 21 days, 0.39 µg/L ([1]; 0.39 µg/L (Fig. S8)): 5.1% | mortality at 21 days, 1.16 µg/L ([1]; 1.16 µg/L (Fig. S8)): 11.8% | mortality at 21 days, 1.3 µg/L ([1]; 1.30 µg/L (Fig. S8)): 16.7% | mortality at 21 days, 1.44 µg/L ([1]; 1.44 µg/L (Fig. S8)): 42.2% | EC10 ([2]; 97.5-2.5% confidence interval in brackets): 0.14 (0.05-0.28) μg L^-1 | EC10 ([2]; confidence interval in brackets): 0.52 (0.18-1.03) nmol L^-1 | growth of parent D. magna (wet weight) ([2]; 21-day test, p-value <0.05): did not except at saturation | LOEC (lowest observed effect concentration, reproduction inhibition) ([2]; 21 days, p-value <0.05 vs controls): 0.2 μg L^–1 | #average live offspring [2, 4]: 75 | %offspring mortality [2, 4]: 2.61% | % inhibition, avr. [2, 4]: 12.9% | #total live offspring ([2]; DNF 0.2 µg/L (0.125 g/L methanol), 21 days, sum of all vessels): 447 | % inhibition (per vessel) ([2]; DNF 0.2 µg/L (0.125 g/L methanol), live offspring vs controls, 21 days, per vessel): 15.8% | #average live offspring [2, 5]: 63 | %offspring mortality [2, 5]: 5.09% | % inhibition, avr. [2, 5]: 25.8% | #total live offspring ([2]; DNF 0.41 µg/L (0.5 g/L methanol), 21 days, sum of all vessels): 317 | mother animal mortality ([2]; DNF 0.41 µg/L (0.5 g/L methanol), vessel 3, day 5): dead | #average live offspring [2, 6]: 59 | %offspring mortality [2, 6]: 11.81% | % inhibition, avr. [2, 6]: 31.6% | #total live offspring ([2]; DNF 1.24 µg/L (1 g/L methanol), 21 days, sum of all vessels): 351 | #average live offspring [2, 7]: 69 | %offspring mortality [2, 7]: 4.95% | % inhibition, avr. [2, 7]: 19.1% | #total live offspring ([2]; DNF […] (0.25 g/L methanol), 21 days, sum of all vessels): 346 | mother animal mortality ([2]; DNF […] (0.25 g/L methanol), vessel 6, day 5): dead | #live offspring per mother, Total ([2]; DNF avr. medium concentration 0.2 µg/L (methanol for dosing 0.125 g/L), 21 days): 75 and 64 and 72 and 66 and 98 | #live offspring per mother, Total ([2]; DNF avr. medium concentration 0.41 µg/L (methanol for dosing 0.5 g/L), 21 days): 59 and 75 and 67 and 55 and 61 | #live offspring per mother, Total ([2]; DNF avr. medium concentration 1.24 µg/L (methanol for dosing 1 g/L), 21 days): 62 and 51 and 53 and 60 and 50 and 75 | %offspring mortality ([2]; DNF avr. medium concentration 1.35 µg/L, conc. of methanol for dosing 1.5 g/L, 21 days): 16.71% | % inhibition, avr. (live offspring per mother) ([2]; DNF avr. medium concentration 1.35 µg/L, conc. of methanol for dosing 1.5 g/L, 21 days, average of 6 vessels): 39.8% | #average live offspring ([2]; DNF avr. medium concentration 1.35 µg/L, conc. of methanol for dosing 1.5 g/L, 21 days, mean of 6 vessels): 52 | #dead offspring per mother, Total (per vessel) [2, 8]: 9 and 12 and 16 and 5 and 8 | #live offspring per mother, Total (per vessel) [2, 8]: 49 and 74 and 37 and 40 and 53 and 56 | % inhibition (live offspring per mother, per vessel) [2, 8]: 42.7% and 13.5% and 56.7% and 53.2% and 38.0% and 34.5% | #total live offspring ([2]; DNF avr. medium concentration 1.35 µg/L, conc. of methanol for dosing 1.5 g/L, 21 days, sum of 6 vessels): 309 | EA50 (effective chemical activity) ([2]; EC50/subcooled liquid solubility, eq 1): 0.032 unitless | Classification according to REACH Annex XIII ([2]; chronic EC10 < 10 μg L^–1): toxic to aquatic life | CTLBB (critical target lipid body burden) ([2]; derived from chronic EC10 using eq 3): 3.4 μmol g^-1 octanol | wet weight of parent daphnids, change relative to control ([2]; 0.18 µg/L (Fig. S9)): +1% | wet weight of parent daphnids, change relative to control ([2]; 0.24 µg/L (Fig. S9)): -2% | wet weight of parent daphnids, change relative to control ([2]; 0.39 µg/L (Fig. S9)): -6% | wet weight of parent daphnids, change relative to control ([2]; 1.16 µg/L (Fig. S9)): 2% | wet weight of parent daphnids, change relative to control ([2]; 1.30 µg/L (Fig. S9)): -6% | wet weight of parent daphnids, change relative to control ([2]; 1.44 µg/L (Fig. S9)): -27% | SW (water solubility) ([3]; measured in previous work): 1.5 ng/mL | log KOW ([3]; n-octanol-water partition coefficient): 6.89 | log KOC ([3]; organic carbon-water partition coefficient): 6.61
